Reference: ChEMBL document CHEMBL1153718, “1,2,4-Triazolyl azabicyclo[3.1.0]hexanes: a new series of potent and selective dopamine D(3) receptor antagonists” (J Med Chem, 2010)

Tests used:
[1] = Clearance in po dosed rat blood; format: ADME, organism-based
[2] = Half life in po dosed rat; format: ADME, organism-based; conditions: in vivo
Rattus norvegicus = test: Volume of distribution at steady state in po dosed rat; format: ADME, organism-based; conditions: in vivo
[3] = Oral bioavailability in rat; format: ADME, organism-based; conditions: in vivo
[4] = Cmax in Hartley guinea pig at 0.5 to 15 mg/kg, iv; format: ADME, organism-based, Cavia porcellus; parameters: dose 0.5-15 mg/kg, route intravenous; conditions: in vivo

Row | CL/F [1] [mL/min/kg] | half-life [2] [h] | Vdss (Rattus norvegicus) [L/kg] | bioavailability [3] [%] | Cmax [4] [ng/mL] | SMILES
1 | 18 | 2.1 | 2.5 | 50 | 6240 | Cc1ncccc1-c1nnc(SCCCN2C[C@@H]3C[C@]3(c3ccc(C(F)(F)F)cc3)C2)n1C
2 | 26 | 2 | 3.9 | 23 | 8320 | Cc1nc(C)c(-c2nnc(SCCCN3C[C@@H]4C[C@]4(c4ccc(C(F)(F)F)cc4)C3)n2C)s1
3 | 13 | 2.1 | 2.2 | 46 | 9580 | Cn1c(SCCCN2C[C@@H]3C[C@]3(c3ccc(C(F)(F)F)cc3)C2)nnc1-c1ccnnc1
4 | 14 | 3.2 | 3.5 | 85 | – | Cc1ncoc1-c1nnc(SCCCN2CC3CC3(c3ccc(C(F)(F)F)cc3)C2)n1C (racemic)
5 | 18 | 3.7 | 4.3 | 47 | 8640 | Cc1ncoc1-c1nnc(SCCCN2CC3CC3(c3ccc(C(F)(F)F)cc3F)C2)n1C (single isomer, unassigned; 74)

Row | SMILES | CL/F [1] [mL/min/kg] | half-life [2] [h] | Vdss (Rattus norvegicus) [L/kg] | bioavailability [3] [%] | Cmax [4] [ng/mL]
6 | Cc1ncoc1-c1nnc(SCCCN2CC3CC3(c3ccc(Cl)cc3)C2)n1C (single isomer, unassigned; 51) | 40 | 1.3 | 2.6 | 31 | –
